Laboratory results reported in patent US20250011738A1, “HEAT TOLERANT ALKALINE PHOSPHATASE” (BiomEdit, LLC, priority 2021, published 2025).

Target: T1, Paenibacillus lentus alkaline phosphatase AP1 (designated "Native"), serine (S) replacement for an aspartic acid (D), SEQ ID NO: 4 (Paenibacillus lentus, UniProt A0A3Q8S6G4, D102S)
T1 sequence (A0A3Q8S6G4 34-572 D102S): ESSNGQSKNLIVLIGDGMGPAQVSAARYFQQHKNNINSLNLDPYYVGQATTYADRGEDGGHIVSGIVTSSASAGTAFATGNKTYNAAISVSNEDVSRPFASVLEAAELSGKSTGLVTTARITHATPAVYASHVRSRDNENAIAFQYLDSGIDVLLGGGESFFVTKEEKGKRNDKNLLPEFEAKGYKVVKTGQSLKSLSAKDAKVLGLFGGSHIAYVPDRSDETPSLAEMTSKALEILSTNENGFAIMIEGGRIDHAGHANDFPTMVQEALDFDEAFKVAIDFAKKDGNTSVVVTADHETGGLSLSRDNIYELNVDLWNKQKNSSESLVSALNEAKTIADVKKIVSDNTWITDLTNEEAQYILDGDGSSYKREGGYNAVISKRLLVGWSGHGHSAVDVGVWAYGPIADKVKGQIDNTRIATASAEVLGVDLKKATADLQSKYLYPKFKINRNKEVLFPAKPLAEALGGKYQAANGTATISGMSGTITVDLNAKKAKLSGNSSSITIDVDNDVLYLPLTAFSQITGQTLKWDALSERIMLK
Assay: Phosphatase kinetics with p-NPP, AP1 ("Native")
Type: biochemical
Method: FIG. 7 presents effect of pH on (A)Vmax (IU/mg) and (B) KM (μM) activity of AP1 (designated “Native”) and APHT (designated “HT”). Assays were performed at 40° C. with p-NPP as substrate in the concentration range 0-5 mM. The enzyme concentration was 2.5 μg/mL for the pH 8 and 0.4 mg/mL for pH 9-13).
FIG. 8 presents effect of pH on (A)Vmax (IU/mg) and (B) KM (μM) activity of AP1 (designated “Native”) and APHT (designated “HT”). Assays were performed at 50° C. with p-NPP as substrate in the concentration range 0-5 mM. The enzyme concentration was 2.5 μg/mL for the pH 8 and 0.4 mg/mL for pH 9-13).
Enzymes, including lysozyme and alkaline phosphatase, are recognized as disruptors of bacterial debris and inflammation. These enzymes reduce inflammation, including by lysing the peptidoglycans and LPS of bacteria, thus deactivating them and thereby bypassing the inflammatory response. An alkaline phosphatase was initially identified and modified from Paenibacillus lentus bacteria and expressed for application and use as a farm animal feed additive. This modified alkaline phosphatase is characterized by having a serine (S) replacement for an aspartic acid (D) in the native bacterial alkaline phosphatase protein sequence and is designated herein as AP1. […] The AP1 alkaline phosphate is described including in U.S. Pat. No. 9,326,535 issued May 3, 2016. The sequence of AP1 is as follows (the serine is in bold and underlined) (SEQ ID NO:4):
• 1 M DEA Buffer pH 10. Dissolve 10.5 g of diethanolamine in to 100 ml of water. The pH adjust with 1 M hydrochloric acid or 1 M NaOH. Filter sterilize and store at 4 C. • 0.5 M Tris Base Buffer pH 10 and 8. Dissolve 6.06 g of Tris in to 100 ml of water. The pH adjust with 1 M hydrochloric acid or 1 M NaOH. Filter sterilize and store at 4 C. • 0.1 M Borate Buffer pH 11 and 12. Dissolve 0.62 g Boric acid, 0.44 g NaCl and Sodium tetraborate 0.95 g in 100 ml H2O. The pH adjust with 1 M hydrochloric acid or 1 M NaOH. Filter sterilize and store at 4 C. • 1 M KCl/NaOH Buffer pH 13. Dissolve 7.4 g KCl in 100 ml water. The pH adjust with 1 M NaOH. Filter sterilize and store at 4 C. • 1 M MgCl2, 23.8 g MgCl2 anhydrous in […] water. Filter sterilize and store at 4 C 3. Activity Assay: p-NPP Substrate
Reactions were carried out at 40° C. using 50 mM Tris buffer pH 7 with 50 mM MgCl2 and at 50° C. using 50 mM DEA buffer pH 10 with 50 mM MgCl2. Enzyme was thawed, aliquoted in 500 μL vials and freeze at −80° C. For 100 μL volume of reaction, components were mixed in 96-well microplate (Fisher 12565501) following the order in TABLE 1. Every reaction condition was done by triplicated at least.
After the adding enzyme, the absorption of product was followed at 405 nm over 5 min in a M5 plate reader with intervals of 20 s. Initial rate was determined for each curve and product formed calculated using the extinction coefficient of 18.5 mM^−1·cm^−1 and a calculated pathlength of 0.5 cm. Initial rates where fitted to Michalis Menten model built in the Kaleidagraph software.
pH effect on enzyme activity was tested at 40 and 50° C. in the corresponding buffer with 50 mM MgCl2 using p-NPP as substrate in the concentration range 0-5.0 mM. The reaction started with the addition of enzyme (2.5 μg/mL for pH 8 and 0.4 μg/mL for pH 9-13) and the absorption at 405 nm was followed for 5 min. Every reaction condition was done by triplicated at least. The initial rates where fitted to Michalis Menten model built in the software Kaleidagraph.

**Q.** `O=[N+]([O-])c1ccc(OP(=O)(O)O)cc1` [p-NPP, p-nitrophenylphosphate] was tested. Which Km (40° C., Borate pH 11) did it give?
**A.** 3340 µM

**Q.** And the Km (40° C., DEA pH 10)?
**A.** 776 µM

**Q.** And the Km (40° C., Tris pH 8)?
**A.** 65 µM

**Q.** What about the Km (40° C., Tris pH 9) of the same molecule?
**A.** 315 µM

**Q.** And the Km (50° C., Borate pH 11)?
**A.** 573 µM

**Q.** What about the Km (50° C., Borate pH 12) of the same molecule?
**A.** 293 µM

**Q.** What about the Km (50° C., KCl/NaOH (pH printed 204; Table 2: 13.0)) of the same molecule?
**A.** 64 µM

**Q.** And the Km (50° C., Tris pH 8)?
**A.** 383 µM

**Q.** And the Km (50° C., Tris pH 9)?
**A.** 1440 µM
